Tests used:
NCI-H292 cells [1] = experiment: In situ hybridization for MUC5AC gene in NCI-H292 cells (Example 2); format: cell-based, human; details: within 12 h
Description: Cell Culture. NCI-H292 cells, a human pulmonary mucoepidermoid carcinoma cell line, were grown in RPMI 1640 medium containing 10% fetal bovine serum, penicillin (100 U/ml), streptomycin (100 μg/ml) and Hepes (25 mM) at 37° C. in a humidified 5% CO2, water-jacketed incubator. Either 6-well culture plates or 8-chamber slides were used to culture the cells. When confluent, cells were incubated for 1 h with neutrophils (10^6 cells/ml) alone, TNFα alone (recombinant human TNFα, 20 ng/ml, Genzyme, Cambridge, Mass.), IL-8 (recombinant human IL-8, 10^−8 M, Genzyme) alone, fMLP (10^−8 M, Sigma, St. Louis, Mo.) alone, TNFα plus neutrophils, IL-8 plus neutrophils, fMLP plus neutrophils, hydrogen peroxide (H2O2, 200 μM), cigarette smoke solution or TGFα (recombinant human TGFα, 0.1-25 ng/ml, Calbiochem, San Diego, Calif.). The cells were then washed and incubated with fresh medium alone. Experiments were terminated at preselected times (for mRNA, 6 h and 12 h; for protein, 24 h). As controls, cells were incubated with medium alone for same time periods. […] NCI-H292 cells were incubated for 1 h with either neutrophils that had been incubated with TNFα (20 ng/ml) for 1 h and then washed with sterile PBS to avoid contamination with the supernatant (e.g., molecules released from neutrophils), or the NCI-H292 cells were incubated with supernatant only. […]

NCI-H292 cells [2] = experiment: MUC5AC mRNA and protein in NCI-H292 cells incubated with cigarette smoke solution (Example 7); format: cell-based, human; details: within 6 hours, increased at 12 hours
Description: NCI-H292 cells, a human pulmonary mucoepidermoid carcinoma cell line, were grown in RPMI 1640 medium containing 10% fetal bovine serum, penicillin (100 U/ml), streptomycin (100 μg/ml) and Hepes (25 mM) at 37° C. in a humidified 5% CO2 water-jacketed incubator. Either 6-well culture plates or 8-chamber slides were used to culture the cells. When confluent, cells were incubated for 1 hour with cigarette smoke solution. The cells were then washed and incubated with fresh medium alone. Experiments were terminated at preselected times (for mRNA, 6 hours and 12 hours; for protein, 24 hours). As controls, cells were incubated with medium alone for same time periods. […] The effects of a selective inhibitor of platelet-derived growth factor receptor tyrosine kinase (tyrphostin AG1295, 100 μM, Calbiochem), and a negative control for tyrphostins (tyrphostin A1, 100 μM, Calbiochem) were also examined. The role of reactive oxygen species was examined using a scavenger of oxygen free radicals DMSO (1%, Sigma), or superoxide dismutase (SOD, 300 U/ml, Sigma).
In situ hybridization was performed using a human EGFR probe, which contains a 350-bp cDNA fragment of the human EGFR gene (pTRI-EGFR-human probe template, Ambion, Austin, Tex.) and a human MUC5AC probe, which contains a 298-bp cDNA fragment of the human MUC5AC gene, The 350-bp cDNA human EGFR was subcloned into pBluescript II SK-vector at Kpn I and EcoR I sites. This pBluescript was used to generate human EGFR antisense and sense probes. Hybridization was performed as described previously. Lou et al. (1998) Am. J. Respir. Crit. Care Med. 157:1927-1934. In brief, the cells grown on the 8-chamber slides were fixed in 4% paraformaldehyde, rehydrated in 0.5×SSC, and then acetylated in triethanolamine and acetic anhydride. Hybridization was carried out with 2500-4000 cpm/μl of antisense or sense probe in 50% deionized formamide, 0.3 M NaCl, 20 mM Tris, 5 mM EDTA, 1× Denhardt's solution, 20 mM dithiothreitol, 10% dextran sulfate, 0.5 mg/ml yeast tRNA, and 0.5 mg/ml sonicated salmon sperm DNA at 58° overnight. Posthybridization treatment consisted of washes with 2×SSC, 1 mM EDTA, 10 mM β-mercaptoethanol at room temperature, incubation with RNase solution (20 μg/ml) for 30 min at room temperature, and further washes in 0.1×SSC, 1 mM EDTA, 10 mM β-mercaptoethanol at 55° C. for 2 hours and then in 0.5×SSC at room temperature for 20 minutes. Specimens were dehydrated, air-dried, and covered with Kodak NBT nuclear track emulsion (Eastman Kodak, Rochester, N.Y.) for autoradiography. After exposure for 7 to 21 days at 4° C., the slides were developed, fixed, and counterstained with hematoxylin.
MUC5AC protein was measured as described previously. Takeyama et al. (1999) Proc. Natl. Acad. Sci. USA 96:3081-3086. In brief, cell lysates were prepared with PBS at multiple dilutions, and 50 μl of each sample was incubated with bicarbonate-carbonate buffer (50 μl) at 40° C. in a 96-well plate (Maxisorp Nunc, Fisher Scientific, Santa Clara, Calif.), until dry. Plates were washed three times with PBS and blocked with 2% bovine serum albumin, fraction V (Sigma) for 1 hour at room temperature. Plates were again washed three times with PBS and then incubated with 50 μl of MUC5AC mAb (1:1 00) that was diluted with PBS containing 0.05% Tween 20. After 1 hour, the wells were washed three times with PBS, and 100 μl horseradish peroxidase-goat anti-mouse IgG conjugate (1:10,000) was dispensed into each well. After 1 hour, plates were washed three times with PBS. Color reaction was developed with 3,3′,5,5′-tetramethylbenzidine (TMB) peroxidase solution (Kirkegaard & Perry Laboratories, Gaithersburg, Md.) and stopped with 2N H2S04. Absorbance was read at 450 nm.

**Q.** Which MUC5AC gene expression (NCI-H292 cells [1]) does the source give for “TGFα: transforming growth factor alpha, EGF-R ligand (recombinant human; rat synthetic in vivo)” here?
**A.** up-regulated

**Q.** What about the “MUC5AC mRNA expression” value (NCI-H292 cells [2]) of the same substance?
**A.** increased

Source: patent US7531500B2, “Preventing airway mucus production by administration of EGF-R antagonists” (The Regents of the University of California, priority 1998, dated 2009)
